In publication PMC8362065, “Easily Available, Amphiphilic Diiron Cyclopentadienyl Complexes Exhibit in Vitro Anticancer Activity in 2D and 3D Human Cancer Cells through Redox Modulation Triggered by CO Release” (Chemistry (Weinheim an Der Bergstrasse, Germany), 2021):

Key:
[1] = Stability in cell culture medium (DMEM) at 37 °C by 1H NMR; assay type: physicochemical; conditions: DMEM-d (6.6 % CD3OD)
Procedure: Next, the stability of the diiron compounds in a cell culture medium (DMEM) solution at 37 °C, over a shorter time range (24 h), was assessed by ^1H NMR.
Stability in water (D2O) and cell culture medium. The procedures are described in the Supporting Information, and data are collected in Table S3.
Table S3. Stability of diiron complexes in D2O, D2O/CD3OD, DMSO-d6/D2O and cell culture medium (DMEM-
d/CD3OD) solution at 37 °C calculated by 1H NMR (Me2SO2 internal standard).
% starting material (72 h) % starting material
Compound D O D O/CD OD DMSO-d /D O DMEM-d
[a] X = I for the stability in D 2O, X = CF3SO3 for the stability in cell culture medium. [b] Stability in D 2O and […]

[2] = tested on: MCF‐7 ADR cells; assay: MTT assay, multidrug-resistant cancer cell model overexpressing P-gp; assay type: cell-based, human; conditions: for IC50: MCF‐7 ADR cells, 72 h, MTT; for RF=IC50 (resistant cells)/IC50 (wild‐type cells): MCF‐7 ADR vs MCF‐7, 72 h
Procedure: The antiproliferative activity was also investigated in a multidrug‐resistant cancer cell model overexpressing P‐gp (MCF‐7 ADR cells).
(§1) Compounds [2B]BF4, [2C]CF3SO3, [2D]CF3SO3 and [3F]CF3SO3 were dissolved in water while the other compounds were dissolved in the minimum DMSO amount prior to cell culture testing. A calculated amount of the stock drug DMSO solution was added to the cell culture media to reach a final maximum DMSO concentration of 0.5 %, which had no effects on cell viability.
(§2) Cell cultures. Human colon (HCT‐15), pancreatic (PSN‐1) and breast (MCF‐7) carcinoma cell lines along with human melanoma cells (A375) were obtained from American Type Culture Collection (ATCC, Rockville, MD). Embryonic kidney HEK293 cells were obtained from the European Collection of Cell Cultures (ECACC, Salisbury, UK). Human ovarian 2008 cancer cells were kindly provided by Prof. G. Marverti (Dept. of Biomedical Science of Modena University, Italy). MCF‐7 ADR cells were kindly provided by Prof. N. Colabufo (Dept. Pharmacy, University of Bari, Italy). Cell lines were maintained in the logarithmic phase at 37 °C in a 5 % CO2 atmosphere using the following culture media containing 10 % fetal calf serum (Euroclone, Milan, Italy), antibiotics (50 units/mL penicillin and 50 μg/mL streptomycin) and 2 mM L‐glutamine: i) RPMI‐1640 medium (Euroclone, Milan, Italy) for PSN‐1, 2008, HCT‐15, MCF‐7 and MCF‐7 ADR cells; ii) DMEM for A375 and HEK293 cells.
(§3) MTT assay. The growth inhibitory effect towards tumour cells was evaluated by means of MTT assay as previously described.[57] Briefly, 3–8×10^3 cells/well, dependent upon the growth characteristics of the cell line, were seeded in 96‐well microplates in growth medium (100 μL). After 24 h, the medium was removed and replaced with a fresh one containing the compound to be studied at the appropriate concentration. Triplicate cultures were established for each treatment. After 24 or 72 h, each well was treated with 10 μL of a 5 mg/mL MTT saline solution, and following 5 h of incubation, 100 μL of a sodium dodecyl sulfate (SDS) solution in HCl 0.01 M were added. After an overnight incubation, cell growth inhibition was detected by measuring the absorbance of each well at 570 nm using a Bio‐Rad 680 microplate reader. Mean absorbance for each drug dose was expressed as a percentage of the control untreated well absorbance and plotted against drug concentration. IC50 values, the drug concentrations that reduce the mean absorbance at 570 nm to 50 % of those in the untreated control wells, were calculated by the four‐parameter logistic (4‐PL) model. Evaluation was based on means from at least four independent experiments.

[3] = tested on: Embryonic kidney HEK293 cells; assay: MTT assay, noncancerous cell line; assay type: cell-based, human; conditions: 72 h; for IC50: HEK293 noncancerous cells, MTT; for SI (selectivity index): IC50 in noncancerous HEK293 cells / average IC50 in cancer cells
Procedure: As one of the main drawbacks of chemotherapeutics is the toxic effect toward noncancerous cells, we measured the cytotoxicity of tested complexes against a noncancerous cell line (HEK293) and calculated the selectivity index (SI, defined as the ratio between the IC50 value in noncancerous cells and the corresponding average IC50 value related to cancer cells; Table 5).
as §1, §2, §3

Substance | % starting material (24 h) [1] [%] | IC50 [2] [µM] | RF=IC50 (resistant cells)/IC50 (wild‐type cells) [2] | IC50 [3] [µM] | SI (selectivity index) [3]
[Fe2Cp2(CO)2(μ‐CO){μ‐CNBn2}]X [[5H]CF3SO3] | 75 | 44.7 ± 6.1 | 1.2 | 98.3 ± 4.2 | 2.8
[Fe2Cp2(CO)2(μ‐CO){μ‐CNMe(C6H11)}]X [[2C]CF3SO3] | 85 | 23.3 ± 4.1 | 1.3 | 62.5 ± 4.9 | 3.6
[Fe2Cp2(CO)2(μ‐CO){μ‐CNMe(4‐C6H4OMe)}]CF3SO3 [[2D]CF3SO3] | 77 | 22.6 ± 4.2 | 1.6 | 94.3 ± 6.1 | 5.6
[Fe2Cp2(CO)2(μ‐CO){μ‐CNMe(CH2CHCH2)}]X [[3F]CF3SO3] | – | > 100 | – | > 100 | –
[Fe2Cp2(CO)2(μ‐CO){μ‐CNMe(1H‐indol‐6‐yl)}]CF3SO3 [[2A]CF3SO3] | 86 | 84.5 ± 8.5 | 1.3 | 136 ± 6.4 | 2.3
[Fe2Cp2(CO)2(μ‐CO){μ‐CNEt(2‐naphthyl)}]BF4 [[4G]BF4] | 85 | 26.9 ± 5.1 | 1.3 | 89.5 ± 4.5 | 3.3
[Fe2Cp2(CO)2(μ‐CO){μ‐CNMe(CH2PO3Et2)}]X [[2B]BF4] | 88 | > 100 | – | > 100 | –
